Measurements: patent US20240425568A1, “COMBINATION THERAPIES FOR HIV INFECTIONS AND USES THEREOF” (VIIV HEALTHCARE COMPANY, priority 2021, published 2024)
Read-outs that look alike come from different tables or passages of the source.

Columns and labels:
[1] = test system: HIV infected CD4+ T cells; assay: ADCC assay: NK-directed killing of HIV infected CD4+ T cells; type: cell-based, human (infected with HIV-1 lab strain IIIB); conditions: for NK-directed killing of HIV infected cells mediated by CD4 binding site bnAbs (ADCC): temsavir 50 nM-0.08 nM for 16-24 hours, antibodies 5 ug/mL, Raltegravir in medium
Description: Isolation and preparation of target and effector cells: Peripheral blood mononuclear cells (PBMCs) were obtained by continuous-flow leukapheresis from healthy donors, isolated by ficoll-hypaque density gradient centrifugation and cryopreserved in the vapor phase of liquid nitrogen. PBMCs were rapidly thawed to room temperature in a 37° C. water bath and resuspended in RPMI 1640 media supplemented with 10% fetal calf serum. For the target cells, CD4+T lymphocytes were purified using immunomagnetic negative selection beads as per the manufacturer's instructions (StemCell Technologies). The cells were activated with phytohemagglutinin-P (Sigma; PHA-P; 5 μg/mL) for 72 hours at 37° C., 5% CO2 and then maintained under the same incubation conditions in RPMI 1640 medium supplemented with 10% fetal calf serum plus 50 U/mL recombinant IL-2. Natural Killer (NK) effector cells were purified from autologous PBMCs using immunomagnetic negative selection beads as per the manufacturer's instructions (StemCell Technologies). The cells were maintained in RPMI 1640 medium supplemented with 10% fetal calf serum and incubated at 37° C., 5% CO2 for 24 hr prior to ADCC assay.
Infection of target cells: HIV-1 lab strain IIIB was used to infect the activated CD4+T lymphocytes by spin infection at 1200×g for 1.5 hours in 24-well plates at 25° C. in the presence of 25 μg/mL DEAE-Dextran. The infected cells were collected, washed and resuspended in RPMI 1640 medium supplemented with 10% fetal calf serum plus 50 U/mL recombinant IL-2 and incubated at 37° C., 5% CO2 for 3 days until infection rates reached above 20%.
ADCC assay: HIV infected CD4^+ T cells (targets) were incubated with cell proliferation dye as per the manufacturer's instructions (eFluor670; eBioscience) and plated in 96-well U-bottom plates. Temsavir was dissolved in DMSO and diluted into RPMI 1640 medium supplemented with 10% fetal calf and serially titrated in the same medium in 5-fold increments for a dose range of 50 nM-0.08 nM. […]
The cells were then stained intracellularly for HIV-1 p24, using the Cytofix/Cytoperm Fixation/Permeabilization Kit (BD Biosciences) with subsequent addition of anti-p24 mAb (FITC anti-p24, clone KC57; Beckman Coulter/Immunotech; 1:200 final concentration) for 20-30 minutes at room temperature. […] The percentage of specific killing was calculated with the following formula: (% of p24^+ cells in Targets plus Effectors)−(% of p24^+ cells in Targets plus Effectors plus Abs)/(% of p24^+ cells in Targets alone without antibody or temsavir) by gating on live target cells.

[2] = biological target: T1, cell surface expressed HIV-1 envelope (Human immunodeficiency virus type 1 group M subtype B, UniProt P04578); type: cell-based, HIV-1 lab strain HxB2; conditions: for overall percentage of cells that contained bound bnAbs: 0.5 uM temsavir compared to DMSO only treated cells, FIG. 2; for binding of bnAb to the cell surface of CD4+/p24+ cells (mean fluorescent intensity, MFI): HIV infected cells treated with 0.5 uM temsavir for 24 hr, compared to DMSO only treated cells, bnAb 50 ug/mL to 0.01 ug/mL, FIG. 1
T1 construct: cell surface expressed HIV-1 envelope from a productive infection of human CD4^+ T cells; endogenous in cells; host or cells: primary human CD4+ T cells (from healthy-donor PBMCs) productively infected with HIV-1 HxB2 virus
Description: Preparation and HIV-1 infection of target cells: Peripheral blood mononuclear cells (PBMCs) were obtained by continuous-flow leukapheresis from healthy donors, isolated by ficoll-hypaque density gradient centrifugation and cryopreserved in the vapor phase of liquid nitrogen. PBMCs were rapidly thawed to room temperature in a 37° C. water bath and cultured in assay medium (RPMI 1640 media supplemented with 10% fetal calf serum plus 30 U/mL recombinant IL-2) containing 2 ug/mL phytohemagglutinin-P (Sigma) for three days in a humidified incubator at 37° C., 5% CO2. CD4^+ T cells were isolated by negative selection (Stemcell Technologies), washed twice and resuspended with assay medium at a final density of 1-2×10^6 cells/mL and incubated at 37° C., 5% CO2 overnight. Cells were centrifuged at 500×g for 10 minutes, resuspended with assay medium at 5×10^6 cell/mL and 200 uL (1×10^6 total cells) were distributed to 24-well tissue culture treated plates. An HIV-1 lab strain, HxB2 virus, previously propagated in human PBMC cells, was diluted with assay medium containing 50 ug/mL DEAE-dextran and 200 uL was added to the cells in the 24-well plates. The plates were centrifuged at 1,200×g for 1.5 hours and the infected cells were collected and pooled in a 50 ml conical tube. The infected cells were washed twice and resuspended in assay medium to a final density of 1-2×10^6 cells/mL and incubated at 37° C., 5% CO2 for three days.
Treatment of HIV-infected target cells with temsavir and N6 bnAbs: HIV infected cells were centrifuged at 500×g for 10 minutes, resuspended with assay medium at 3×10^6 cell/mL and 50 uL (150,000 total cells) were distributed to 96-well, U-bottom tissue-culture treated plates. […] The antibodies were eluted and diluted in buffer consisting of 150 mM Arginine, 50 mM Sodium acetate, pH 5.5, 150 mM NaCl) were serially titrated in assay medium and added to the temsavir-treated cells for a final concentration range of 50 ug/mL to 0.01 ug/mL. The plates were incubated at 37° C., 5% CO2 for 30 minutes.
Flow cytometry: The assay plates were removed from the incubator and the cells were pelleted by centrifugation at 500×g for 2 minutes at 25° C. The cells were washed twice by mixing with 200 μL of ice cold wash buffer (phosphate buffered saline containing 2% fetal calf serum) with centrifugation at 500×g for 2 minutes at 25° C. for each wash cycle. […] The stained cells were washed twice with wash buffer as indicated above, acquired on a Fortessa cytometer (BD Biosciences) and the data were analyzed by mean fluorescent intensity (MFI) using FlowJo v10.8 software (Tree Star).

Row | Molecule | cell death of HIV infected primary cells in the absence of effector cells ([1]; effector cells eliminated from the assay, FIG. 4) | NK-directed killing of HIV infected cells mediated by CD4 binding site bnAbs (ADCC) ([1]; NK effector-to-target ratio 3:1, 24 hours, FIG. 3) | NK-directed killing of HIV infected cells mediated by CD4 binding site bnAbs (ADCC) ([1]; NK effector-to-target ratio 3:1, 24 hours, FIG. 3, listed as Temsavir) | overall percentage of cells that contained bound bnAbs [2] | overall percentage of cells that contained bound bnAbs ([2]; listed as Temsavir) | binding of bnAb to the cell surface of CD4+/p24+ cells (mean fluorescent intensity, MFI) [2] | magnitude of killing (maximum), percentage of specific killing ([1]; with temsavir titration 50 nM-0.08 nM, antibody 5 ug/mL, NK effector-to-target ratio 3:1, 24 hours, FIG. 3)
1 | COc1cnc(-n2cnc(C)n2)c2[nH]cc(C(=O)C(=O)N3CCN(C(=O)c4ccccc4)CC3)c12 [temsavir, 1-(4-benzoylpiperazin-1-yl)-2-[4-methoxy-7-(3-methyl-1,2,4-triazol-1-yl)-1H-pyrrolo[2,3-c]pyridin-3-yl]ethane-1,2-dione] | does not lead to cell death | Dose dependent temsavir enhancement | enhances | significant increase | enhancement | enhancement | 
2 | N6-LAGA: Fc binding-reduced N6 antibody, constant domain comprising L235A and G237A mutations; HC SEQ ID NO: 13 |  |  |  |  |  | substantial increase | 25%
